Measurements from patent publication US9284345B2 (priority 2007, dated 2016).
Read-outs that look alike come from different tables or passages of the source.

Assays:
[1] = system: Immature Rat CX + DHT; experiment: animal or person; type: in vivo; conditions: po; for change in vivo at 0.1 mg / change in vivo at 0.5 mg: Rattus norvegicus, 168 h
[2] = system: Shionogi mouse mammary carcinoma cells; experiment: cells; type: cell-based; conditions: for Ki: read-out: Shionogi cells Antiandrogenic activity Ki; for % of inh of DHT at 10^−7 M (Basal = 100%): 0.0003 µM
[3] = molecular target: T1, Human Androgen Receptor (Homo sapiens, UniProt P10275); type: binding
T1 construct: expressed in transfected cells; host or cells: HEK-293 cells stably transfected with the pCMVneo-hAR plasmid (G-418 selection); cytosol used
T1 sequence (P10275 1-920): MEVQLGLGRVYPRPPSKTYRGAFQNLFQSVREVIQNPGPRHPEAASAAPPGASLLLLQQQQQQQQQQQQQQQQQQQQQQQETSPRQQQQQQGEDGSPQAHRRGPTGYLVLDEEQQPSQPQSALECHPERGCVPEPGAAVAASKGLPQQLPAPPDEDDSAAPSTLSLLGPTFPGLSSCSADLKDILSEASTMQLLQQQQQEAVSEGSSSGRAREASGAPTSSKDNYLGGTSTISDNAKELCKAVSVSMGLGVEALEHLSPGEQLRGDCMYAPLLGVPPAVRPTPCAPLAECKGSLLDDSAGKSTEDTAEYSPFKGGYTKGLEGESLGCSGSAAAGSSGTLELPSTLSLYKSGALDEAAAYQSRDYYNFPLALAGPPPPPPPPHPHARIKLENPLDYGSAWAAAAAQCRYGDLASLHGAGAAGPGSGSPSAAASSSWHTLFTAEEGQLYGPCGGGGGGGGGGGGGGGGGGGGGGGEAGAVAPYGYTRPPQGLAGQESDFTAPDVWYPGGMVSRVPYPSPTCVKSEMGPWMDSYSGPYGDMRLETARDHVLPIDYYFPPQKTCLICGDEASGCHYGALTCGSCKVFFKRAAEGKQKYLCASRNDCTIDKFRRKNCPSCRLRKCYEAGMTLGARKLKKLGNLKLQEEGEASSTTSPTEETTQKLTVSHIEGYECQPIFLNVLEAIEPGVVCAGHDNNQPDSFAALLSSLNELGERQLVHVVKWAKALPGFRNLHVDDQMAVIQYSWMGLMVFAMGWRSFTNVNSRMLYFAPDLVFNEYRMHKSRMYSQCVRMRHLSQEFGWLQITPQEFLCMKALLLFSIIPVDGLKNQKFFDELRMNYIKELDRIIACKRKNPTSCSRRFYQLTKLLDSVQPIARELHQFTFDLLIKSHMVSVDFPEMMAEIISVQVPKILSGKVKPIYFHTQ

[4] = system: Immature Rat CX; conditions: for In Vivo Agonist % Change vs CX (DHT = +100%) SV / In Vivo Agonist % Change vs CX (DHT = +100%) VP: po
[5] = system: Intact Rat; experiment: In vivo activity in intact rat (organ and muscle weight); conditions: rat, in vivo
[6] = read-out: In Vivo Antagonist % Change vs DHT (CX = −100%) SV
[7] = read-out: In Vivo Antagonist % Change vs DHT (CX = −100%) VP

Compound | Shionogi cells Antiandrogenic activity Ki OH-Flu/Ki compound [2] | Ki [2] [nM] | Human Androgen Receptor Binding RBA (%) R1881 = 100% [3] [%] | In Vivo Agonist % Change vs CX (DHT = +100%) SV [4] | In Vivo Agonist % Change vs CX (DHT = +100%) VP [4] | % of stim of basal at 10^−7M (% over basal) [2] | % of stim of basal at 10^−7 M (DHT = 100%) [2] | % of inh of DHT at 10^−7 M (Basal = 100%) [2] | In Vivo Agonist Rat CX % change vs CX (DHT CONT = +100%) Bulbo [4] | In Vivo Agonist Rat CX % change vs CX (DHT CONT = +100%) SV [4] | In Vivo Agonist Rat CX % change vs CX (DHT CONT = +100%) VP [4] | also measured
Cc1cnccc1C[C@]1(O)CCC2C3CCc4c(ccc(C#N)c4F)C3CC[C@@]21C (stereo partly shown) [EM-8504] | 7.5 | 2.5 | 6.1 |  |  |  |  |  |  |  |  | change in vivo at 0.1 mg [1, 6]: -75 ± 2%; change in vivo at 0.1 mg [1, 7]: -51 ± 13%
Cc1c(C#N)ccc2c1CCC1C2CCC2(C)C1CCCC2(O)Cc1cc[n+]([O-])cc1 (stereo not shown) [EM-9140] | 11 | 1.2 | 1.4 | 0% | 0% |  |  |  |  |  |  | 
C[C@]12CCC3c4ccc(C#N)c(F)c4CCC3C1CC[C@@]2(O)Cc1ccncc1Cl (stereo partly shown) [EM-8632] | 2.1 | 4.1 | 47 |  |  |  |  |  |  |  |  | In Vivo Antagonist % Change vs DHT (CX = −100%) SV ([1]; rat, in vivo): −74 ± 3%; In Vivo Antagonist % Change vs DHT (CX = −100%) VP ([1]; rat, in vivo): −43 ± 6%
C[C@]12CCC3c4ccc(C#N)c(Cl)c4CCC3C1CC[C@@]2(O)Cc1cc[n+]([O-])cc1F (stereo partly shown) [EM-5987] |  | 0.35 ± 0.15 | 6.8 ± 1.7 |  |  |  |  |  |  |  |  | change in vivo at 0.5 mg [1, 6]: -83%; change in vivo at 0.5 mg [1, 7]: -69%
C[C@]12CCC3c4ccc(C#N)c(F)c4CCC3C1CC[C@@]2(O)Cc1ccncc1F (stereo partly shown) [EM-8455] | 3.1 | 1.9 | 9.1 | +1 ± 2% | 0% |  |  |  |  |  |  | change in vivo at 0.1 mg [1, 6]: -85 ± 4%; change in vivo at 0.1 mg [1, 7]: -49 ± 3%
C[C@H]1C[C@@]2(C)C(CC[C@@]2(O)Cc2ccncc2)C2CCc3c(ccc(C#N)c3F)C21 (stereo partly shown) [EM-6582] |  |  | 331 |  |  | +145 ± 78% | +41 ± 22% | +59 ± 22% | +71 ± 15% | +18 ± 3% | +37 ± 3% | In Vivo Anti-A Rat CX + DHT % change vs DHT (CX CONT = −100%) SV ([1]; rat, in vivo): −60 ± 6%; In Vivo Anti-A Rat CX + DHT % change vs DHT (CX CONT = −100%) VP ([1]; rat, in vivo): −36 ± 1%; In Vivo Intact Rat % change vs Intact CONT (Intact CONT = +100%; CX CONT = 0%) Bulbo [5]: +197 ± 29%; In Vivo Intact Rat % change vs Intact CONT (Intact CONT = +100%; CX CONT = 0%) SZ [5]: +49 ± 5%; In Vivo Intact Rat % change vs Intact CONT (Intact CONT = +100%; CX CONT = 0%) VP [5]: +72 ± 6%
C[C@H]1C[C@@]2(C)C(CC[C@@]2(O)Cc2ccncc2F)C2CCc3c(ccc(C#N)c3F)C21 (stereo partly shown) [EM-6594] |  |  | 292 |  |  | +224% | +63% | +37% | +97 ± 19% | +13 ± 2% | +28 ± 7% | In Vivo Anti-A Rat CX + DHT % change vs DHT (CX CONT = −100%) SV ([1]; rat, in vivo): [−69 ± 4] %; In Vivo Anti-A Rat CX + DHT % change vs DHT (CX CONT = −100%) VP ([1]; rat, in vivo): [−56 ± 4] %
CC1CC2(C)C(CCC2(O)Cc2cc[n+]([O-])cc2F)C2CCc3c(ccc(C#N)c3F)C12 (stereo not shown) [EM-6595] |  |  | 13 |  |  | +117 ± 11% | +43 ± 13% | −58 ± 13% | +97 ± 9% | +14 ± 1% | +28 ± 3% | In Vivo Anti-A Rat CX + DHT % change vs DHT (CX CONT = −100%) SV ([1]; rat, in vivo): [−74 ± 3] %; In Vivo Anti-A Rat CX + DHT % change vs DHT (CX CONT = −100%) VP ([1]; rat, in vivo): [−56 ± 5] %; In Vivo Intact Rat % change vs Intact CONT (Intact CONT = +100%; CX CONT = 0%) Bulbo [5]: +162 ± 9%; In Vivo Intact Rat % change vs Intact CONT (Intact CONT = +100%; CX CONT = 0%) SZ [5]: +40 ± 3%; In Vivo Intact Rat % change vs Intact CONT (Intact CONT = +100%; CX CONT = 0%) VP [5]: +67 ± 10%
CCC1CC2(C)C(CCC2(O)Cc2cc[n+]([O-])cc2)C2CCc3c(ccc(C#N)c3F)C12 (stereo not shown) [EM-8987] |  |  | 26 |  |  | +73% | +74% | +35% | +118 ± 10% | +25 ± 5% | +56 ± 11% | In Vivo Intact Rat % change vs Intact CONT (Intact CONT = +100%; CX CONT = 0%) Bulbo [5]: +292 ± 30%; In Vivo Intact Rat % change vs Intact CONT (Intact CONT = +100%; CX CONT = 0%) SZ [5]: +110 ± 13%; In Vivo Intact Rat % change vs Intact CONT (Intact CONT = +100%; CX CONT = 0%) VP [5]: +84 ± 4%
C[C@]12CCC3c4ccc(C#N)c(Cl)c4CCC3C1CCC[C@@]2(O)Cc1ccncc1 (stereo partly shown) [EM-5943] |  | 2.1 ± 1.8 | 26 | +3 ± 4% | +2 ± 2% |  |  |  |  |  |  | 
CCC1CC2(C)C(CCC2(O)Cc2cc[n+]([O-])cc2F)C2CCc3c(ccc(C#N)c3F)C12 (stereo not shown) [EM-9017] |  |  | 139 |  |  | +36% | +31% | +64% | +102 ± 12% | +22 ± 2% | +24 ± 5% | In Vivo Anti-A Rat CX + DHT % change vs DHT (CX CONT = −100%) Bulbo ([1]; rat, in vivo): +3 ± 11%; In Vivo Anti-A Rat CX + DHT % change vs DHT (CX CONT = −100%) SV ([1]; rat, in vivo): −54 ± 2%; In Vivo Anti-A Rat CX + DHT % change vs DHT (CX CONT = −100%) VP ([1]; rat, in vivo): −42 ± 2%; In Vivo Intact Rat % change vs Intact CONT (Intact CONT = +100%; CX CONT = 0%) Bulbo [5]: +154 ± 13%; In Vivo Intact Rat % change vs Intact CONT (Intact CONT = +100%; CX CONT = 0%) SZ [5]: +57 ± 6%; In Vivo Intact Rat % change vs Intact CONT (Intact CONT = +100%; CX CONT = 0%) VP [5]: +47 ± 5%; inhibition of intact rat prostate [5]: 53±5%; inhibition of intact rat seminal vesicles [5]: 43±6%; stimulation of the bulbocavernosus muscles in intact rat [5]: 54±13%
C[C@]12CCC3c4ccc(C#N)cc4CCC3C1CC[C@@]2(O)Cc1ccc(-c2ccncc2)cc1 (stereo partly shown) [EM-4240] | 1.4 | 24 | 110 | +3 ± 1% | +12 ± 3% |  |  |  |  |  |  | change in vivo at 0.1 mg [1, 6]: -58 ± 2%; change in vivo at 0.5 mg [1, 6]: -85%; change in vivo at 0.1 mg [1, 7]: -46 ± 9%; change in vivo at 0.5 mg [1, 7]: -52%
Cc1c(C#N)ccc2c1CCC1C2CC[C@@]2(C)C1CC[C@@]2(O)Cc1ccncc1 (stereo partly shown) [EM-5984] | 4.0 | 1.9 | 29 | 0% | 0% |  |  |  |  |  |  | 
C[C@]12CCC3c4ccc(C#N)c(F)c4CCC3C1CC[C@@]2(O)Cc1ccncc1 (stereo partly shown) [EM-5855] | 11 ± 1 | 1 ± 0.2 | 8.2 ± 0.5 | [1 ± 4] % | [2 ± 1] % |  |  |  |  |  |  | 
C[C@]12CCC3c4ccc(C#N)c(Cl)c4CCC3C1CC[C@@]2(O)Cc1ccncc1F (stereo partly shown) [EM-5988] | mixed |  | 97 ± 19 | +10 ± 0% | +10 ± 0% |  |  |  |  |  |  | In Vivo Antagonist % Change vs DHT (CX = −100%) SV ([1]; rat, in vivo): [−83 ± 3] %; In Vivo Antagonist % Change vs DHT (CX = −100%) VP ([1]; rat, in vivo): [−71 ± 5] %; Shionogi cells Antiandrogenic activity Ki (nM) [2]: mixed
C[C@]12CCC3c4ccc(C#N)c(F)c4CCC3C1CC[C@@]2(O)Cc1cc[n+]([O-])cc1Cl (stereo partly shown) [EM-8633] |  | 0.8 | 2.3 | 1% | 0% |  |  |  |  |  |  | change in vivo at 0.1 mg [1, 6]: -83%; change in vivo at 0.1 mg [1, 7]: -42 ± 5%
